Data on 2 compounds can be found in patent US20240327364A1, “THERAPEUTIC TARGETING OF GPR68 TO INDUCE FERROPTOSIS” (University Of Maryland, Baltimore, priority 2023, published 2024).

In one assay the target is T1, ABL1-phosphorylated (Homo sapiens, UniProt P00519).
T1 construct: purchased DiscoveRx
The experiment in a line: KinomeScan. It counts as binding. As to conditions: read-out: % Control.

A further assay deals with CLK3 (Homo sapiens, UniProt P49761). The experiment in a line: KinomeScan. It counts as binding. As to conditions: read-out: % Control.
The target in a further assay is T2, DRAK1 (Homo sapiens, UniProt Q9UEE5).
T2 construct: purchased DiscoveRx (Fremont, CA), KinomeScan service
T2 sequence (Q9UEE5 whole entry): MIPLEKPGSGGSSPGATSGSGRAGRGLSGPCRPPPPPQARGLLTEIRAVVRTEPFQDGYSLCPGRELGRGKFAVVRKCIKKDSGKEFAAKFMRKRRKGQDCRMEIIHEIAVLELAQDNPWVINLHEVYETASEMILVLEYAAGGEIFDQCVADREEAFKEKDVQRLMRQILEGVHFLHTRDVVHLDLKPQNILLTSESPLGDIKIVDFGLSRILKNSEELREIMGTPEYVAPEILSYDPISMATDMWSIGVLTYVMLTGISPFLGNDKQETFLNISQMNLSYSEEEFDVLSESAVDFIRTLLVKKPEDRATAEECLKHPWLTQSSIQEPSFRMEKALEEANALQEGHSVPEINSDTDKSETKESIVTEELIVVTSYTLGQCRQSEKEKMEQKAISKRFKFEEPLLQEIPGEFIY
Description: KinomeScan. It counts as binding. As to conditions: read-out: % Control.

Assay [1] deals with T3, EGFR(L747-S752del, P753S) (Homo sapiens, UniProt P00533, DEL747-752/P753S).
T3 construct: purchased DiscoveRx (Fremont, CA), KinomeScan service
The experiment in a line: KinomeScan. It counts as binding. As to conditions: read-out: % Control.

The target in another assay is T4, GSK3A (Homo sapiens, UniProt P49840).
T4 construct: purchased DiscoveRx (Fremont, CA)
The experiment in a line: KinomeScan. In kind it is binding. As to conditions: read-out: % Control.

The next assay has as its target T5, NDR2 (Homo sapiens, UniProt Q9Y2H1).
T5 construct: purchased DiscoveRx
Description: KinomeScan. It counts as binding. The note with it: read-out: % Control.

The target of a further assay is T6, NEK5 (Homo sapiens, UniProt Q6P3R8).
T6 construct: purchased DiscoveRx
Description: KinomeScan. It counts as binding. As to conditions: read-out: % Control.

The next assay has as its target T7, NEK7 (Homo sapiens, UniProt Q8TDX7).
T7 construct: purchased DiscoveRx
Description: KinomeScan. In kind it is binding. The note with it: read-out: % Control.

The next assay has as its target T8, PIK3C2G (Homo sapiens, UniProt O75747).
T8 construct: purchased DiscoveRx (Fremont, CA)
Description: KinomeScan. The note with it: read-out: % Control. It counts as binding.

Another assay addresses T9, PIM3 (Homo sapiens, UniProt Q86V86).
T9 construct: purchased DiscoveRx (Fremont, CA)
Description: KinomeScan. In kind it is binding. As to conditions: read-out: % Control.

The next assay has as its target T10, PIP5K2B (Homo sapiens, UniProt P78356).
T10 construct: purchased DiscoveRx (Fremont, CA)
The experiment in a line: KinomeScan. It counts as binding. The note with it: read-out: % Control.

Another assay addresses T11, ROS1 (Homo sapiens, UniProt P08922).
T11 construct: purchased DiscoveRx (Fremont, CA)
The experiment in a line: KinomeScan. In kind it is binding. The note with it: read-out: % Control.

Another assay addresses T12, S6K1 (Homo sapiens, UniProt P23443).
T12 construct: purchased DiscoveRx (Fremont, CA)
Description: KinomeScan. It counts as binding. As to conditions: read-out: % Control.

In another assay the target is T13, WEE1 (Homo sapiens, UniProt P30291).
T13 construct: purchased DiscoveRx
Description: KinomeScan. The note with it: read-out: % Control. In kind it is binding.

For another assay, the target named is T14, CB2 (Homo sapiens, UniProt P34972).
T14 construct: host or cells: Chem-1 cells with promiscuous Gα15
T14 sequence (P34972 whole entry, species assumed): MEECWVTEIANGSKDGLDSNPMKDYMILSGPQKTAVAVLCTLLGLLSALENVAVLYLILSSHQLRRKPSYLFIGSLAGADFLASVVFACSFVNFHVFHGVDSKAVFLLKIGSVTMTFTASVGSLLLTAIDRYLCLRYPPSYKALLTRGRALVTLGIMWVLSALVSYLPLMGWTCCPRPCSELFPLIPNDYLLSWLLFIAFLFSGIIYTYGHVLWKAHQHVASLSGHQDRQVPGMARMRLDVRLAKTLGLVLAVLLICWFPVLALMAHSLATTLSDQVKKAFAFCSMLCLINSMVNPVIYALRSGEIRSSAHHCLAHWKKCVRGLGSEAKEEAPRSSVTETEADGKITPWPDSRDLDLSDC
Description: GPCR Profiler. In kind it is cell-based.

A further assay addresses T15, CCR2B (Homo sapiens, UniProt P41597).
T15 construct: host or cells: Chem-1 cells with Gα15
The experiment in a line: GPCR Profiler. In kind it is cell-based.

Another assay has as its target T16, CRF2 (Homo sapiens, UniProt Q13324).
T16 construct: host or cells: Chem-1 cells with Gα15
Description: GPCR Profiler. It counts as cell-based.

A further assay addresses T17, FPR1 (Homo sapiens, UniProt P21462).
T17 construct: host or cells: Chem-1 cells expressing Gα15
Description: GPCR Profiler. In kind it is cell-based.

Another assay concerns the target T18, LPA3 (Homo sapiens, UniProt Q9UBY5).
T18 construct: host or cells: Chem-1 cells with promiscuous Gα15
Description: GPCR Profiler. In kind it is cell-based.

For the next assay, the target named is T19, M4 (Homo sapiens, UniProt P08173).
T19 construct: host or cells: Chem-1 cells with promiscuous Gα15
T19 sequence (P08173 whole entry): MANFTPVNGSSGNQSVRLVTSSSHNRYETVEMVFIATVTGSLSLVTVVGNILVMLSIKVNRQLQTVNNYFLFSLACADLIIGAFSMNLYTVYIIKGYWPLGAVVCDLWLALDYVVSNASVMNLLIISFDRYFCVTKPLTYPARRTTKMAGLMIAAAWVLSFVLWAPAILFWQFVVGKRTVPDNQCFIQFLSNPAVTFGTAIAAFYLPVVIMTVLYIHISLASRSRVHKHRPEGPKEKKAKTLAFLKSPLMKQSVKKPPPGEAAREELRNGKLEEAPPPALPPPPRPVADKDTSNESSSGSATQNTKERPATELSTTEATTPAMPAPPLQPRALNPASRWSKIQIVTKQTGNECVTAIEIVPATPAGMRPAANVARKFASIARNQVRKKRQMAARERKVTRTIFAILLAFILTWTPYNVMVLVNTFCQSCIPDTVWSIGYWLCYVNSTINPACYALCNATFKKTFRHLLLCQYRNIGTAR
The experiment in a line: GPCR Profiler. In kind it is cell-based.

The target of another assay is T20, MC4 (Homo sapiens, UniProt P32245).
T20 construct: host or cells: Chem-1 cells with promiscuous Gα15
T20 sequence (P32245 whole entry): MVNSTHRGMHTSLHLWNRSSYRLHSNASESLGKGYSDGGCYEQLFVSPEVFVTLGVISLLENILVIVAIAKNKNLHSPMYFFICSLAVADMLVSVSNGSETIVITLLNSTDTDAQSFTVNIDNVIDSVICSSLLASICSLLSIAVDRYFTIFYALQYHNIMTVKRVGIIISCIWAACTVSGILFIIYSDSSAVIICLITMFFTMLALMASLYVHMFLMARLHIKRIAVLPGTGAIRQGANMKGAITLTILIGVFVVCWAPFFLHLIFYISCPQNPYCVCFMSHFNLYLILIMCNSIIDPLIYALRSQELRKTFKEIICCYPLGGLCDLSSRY
The experiment in a line: GPCR Profiler. In kind it is cell-based.

A further assay has as its target T21, VPAC2 (Homo sapiens, UniProt P41587).
T21 construct: host or cells: Chem-1 cells expressing Galpha15
The experiment in a line: GPCR Profiler. In kind it is cell-based.

A further assay has as its system HT-1080. Description: Cell Titer-Glo viability, Fibrosarcoma. It counts as cell-based. On the procedure:
OGM2 kills wide variety of cancer cell types. Cell sensitivity can be classified in to Very Sensitive (LC50<2 μM), Sensitive (LC50=2 to 10 μM), Mildly Sensitive (LC50>10 μM), and Refractory (no killing at 10 μM). The listed established cell were incubated with OGM2 at 2 μM or 10 μM for 72 hours under standard cell culture conditions, and relative cell number was assessed using Cell Titer-Glo Luminescent Cell Viability Assay (Promega™) following the manufacturer's instructions. Luminescence was determined using a Cytation 5 reader and Gen5 software package (BioTek™).
Cancer cells, which are very sensitive to killing by OGM2 (LCs <2 μM), with reported mRNA expression of GPR68 and the related proton sensing receptor GPR4. LC50's (concentrations causing 50% lethality) were determined using CellTiter-Glo (Promega™, G7570). Cells were plated in 12-well plates (CELLTREAT Scientific Products, 229112) in 1 ml of DMEM with high glucose, GlutaMAX, HEPES, or RPMI 1640 with Penicillin-Streptomycin (ThermoFisher™, 10564029, 11875119 and 15140122) and 10% FBS. Cells were incubated overnight at 37° C. in 5% CO2. Then 1 mL of fresh media was added with DMSO, OGM, or positive control (Erastin; APExBIO Technology, LLC, B1524) and cells incubated for 3 days. On the third day, all media was removed, cells were rinsed with 1×PBS, PBS was removed, and 200 μL of 1× Passive Lysis Buffer (Promega™, E1941) was added to each well. […]. Subsequently, 20 μL of lysate was added to 100 μL CellTiter-Glo™ reagent on a LUMITRAC 200 plate (Greiner™ bio-one, 82050-726). Plates were briefly spun down and read on a GloMax-Multi Detection System (Promega™).
The cells listed in the tables above were incubated with OGM2 at 2 μM or 10 μM for 72 hours under standard cell culture conditions, and relative cell number was assessed using Cell Titer-Glo Luminescent Cell Viability Assay (Promega™) following the manufacturer's instructions. Luminescence was determined using a Cytation 5 reader and Gen5 software package (BioTek™). RNA expression of GPR68 and GPR4 in the corresponding cancer cell lines are listed, according to the publicly available The Human Protein Atlas version 22.0 and Ensembl version 103.38 (see proteinatlas.org). The consensus normalized expression value (“nTPM”=normalize transcript per million) was calculated as the maximum nTPM value for each gene in the two data sources.
Background: ATP-based viability assays read luminescence as a measure of living cells.

T15 sequence (P41597 1-360 isoform P41597-2): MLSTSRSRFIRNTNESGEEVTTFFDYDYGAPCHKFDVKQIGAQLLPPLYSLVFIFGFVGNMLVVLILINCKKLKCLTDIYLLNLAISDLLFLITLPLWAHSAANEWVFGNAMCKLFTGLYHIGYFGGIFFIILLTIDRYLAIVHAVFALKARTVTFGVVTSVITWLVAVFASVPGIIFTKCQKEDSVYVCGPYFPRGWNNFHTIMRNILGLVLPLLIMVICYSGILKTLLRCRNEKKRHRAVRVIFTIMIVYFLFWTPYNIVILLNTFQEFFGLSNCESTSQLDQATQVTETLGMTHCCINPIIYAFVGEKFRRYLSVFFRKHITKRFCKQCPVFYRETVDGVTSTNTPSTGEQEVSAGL
T18 sequence (Q9UBY5 whole entry, species assumed): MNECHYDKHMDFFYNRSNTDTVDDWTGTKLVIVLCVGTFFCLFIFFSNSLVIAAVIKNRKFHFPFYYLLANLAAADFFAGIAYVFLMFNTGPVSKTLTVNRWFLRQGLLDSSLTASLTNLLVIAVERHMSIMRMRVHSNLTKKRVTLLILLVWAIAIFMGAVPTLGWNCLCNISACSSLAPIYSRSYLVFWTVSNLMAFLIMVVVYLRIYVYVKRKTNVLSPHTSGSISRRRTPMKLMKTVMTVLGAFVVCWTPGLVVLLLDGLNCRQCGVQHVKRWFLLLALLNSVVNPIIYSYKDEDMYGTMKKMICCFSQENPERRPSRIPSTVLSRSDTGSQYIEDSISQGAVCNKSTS
T16 sequence (Q13324 whole entry): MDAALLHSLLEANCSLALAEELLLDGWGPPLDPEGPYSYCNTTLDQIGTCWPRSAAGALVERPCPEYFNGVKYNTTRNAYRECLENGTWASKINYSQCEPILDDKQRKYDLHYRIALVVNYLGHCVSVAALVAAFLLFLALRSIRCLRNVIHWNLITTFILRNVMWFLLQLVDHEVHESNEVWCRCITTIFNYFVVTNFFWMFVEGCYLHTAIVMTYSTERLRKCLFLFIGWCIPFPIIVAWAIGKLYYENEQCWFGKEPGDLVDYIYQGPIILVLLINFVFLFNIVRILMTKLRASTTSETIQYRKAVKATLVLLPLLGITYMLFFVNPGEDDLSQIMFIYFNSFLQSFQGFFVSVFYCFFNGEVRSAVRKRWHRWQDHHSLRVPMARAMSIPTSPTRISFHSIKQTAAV
T21 sequence (P41587 24-438): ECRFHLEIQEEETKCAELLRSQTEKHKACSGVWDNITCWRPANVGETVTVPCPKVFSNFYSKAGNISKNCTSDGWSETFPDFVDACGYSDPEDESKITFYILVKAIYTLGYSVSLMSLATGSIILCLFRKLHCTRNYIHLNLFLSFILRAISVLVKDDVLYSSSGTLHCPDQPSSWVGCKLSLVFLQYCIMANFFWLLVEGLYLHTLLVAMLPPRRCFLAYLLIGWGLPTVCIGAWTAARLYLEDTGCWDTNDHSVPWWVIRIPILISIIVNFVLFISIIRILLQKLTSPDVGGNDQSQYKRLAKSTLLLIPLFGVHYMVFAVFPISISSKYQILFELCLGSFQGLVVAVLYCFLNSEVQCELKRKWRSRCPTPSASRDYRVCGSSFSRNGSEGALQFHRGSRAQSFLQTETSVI
T17 sequence (P21462 whole entry): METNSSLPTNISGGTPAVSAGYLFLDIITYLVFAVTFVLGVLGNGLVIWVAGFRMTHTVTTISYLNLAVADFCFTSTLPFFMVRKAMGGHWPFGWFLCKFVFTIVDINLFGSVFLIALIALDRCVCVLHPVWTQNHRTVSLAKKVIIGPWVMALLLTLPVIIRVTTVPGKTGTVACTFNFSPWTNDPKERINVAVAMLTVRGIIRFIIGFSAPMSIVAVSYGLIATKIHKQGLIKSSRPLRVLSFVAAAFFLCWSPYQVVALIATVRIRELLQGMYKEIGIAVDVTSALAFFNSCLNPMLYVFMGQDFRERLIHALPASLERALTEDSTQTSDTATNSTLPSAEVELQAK
T8 sequence (O75747 whole entry): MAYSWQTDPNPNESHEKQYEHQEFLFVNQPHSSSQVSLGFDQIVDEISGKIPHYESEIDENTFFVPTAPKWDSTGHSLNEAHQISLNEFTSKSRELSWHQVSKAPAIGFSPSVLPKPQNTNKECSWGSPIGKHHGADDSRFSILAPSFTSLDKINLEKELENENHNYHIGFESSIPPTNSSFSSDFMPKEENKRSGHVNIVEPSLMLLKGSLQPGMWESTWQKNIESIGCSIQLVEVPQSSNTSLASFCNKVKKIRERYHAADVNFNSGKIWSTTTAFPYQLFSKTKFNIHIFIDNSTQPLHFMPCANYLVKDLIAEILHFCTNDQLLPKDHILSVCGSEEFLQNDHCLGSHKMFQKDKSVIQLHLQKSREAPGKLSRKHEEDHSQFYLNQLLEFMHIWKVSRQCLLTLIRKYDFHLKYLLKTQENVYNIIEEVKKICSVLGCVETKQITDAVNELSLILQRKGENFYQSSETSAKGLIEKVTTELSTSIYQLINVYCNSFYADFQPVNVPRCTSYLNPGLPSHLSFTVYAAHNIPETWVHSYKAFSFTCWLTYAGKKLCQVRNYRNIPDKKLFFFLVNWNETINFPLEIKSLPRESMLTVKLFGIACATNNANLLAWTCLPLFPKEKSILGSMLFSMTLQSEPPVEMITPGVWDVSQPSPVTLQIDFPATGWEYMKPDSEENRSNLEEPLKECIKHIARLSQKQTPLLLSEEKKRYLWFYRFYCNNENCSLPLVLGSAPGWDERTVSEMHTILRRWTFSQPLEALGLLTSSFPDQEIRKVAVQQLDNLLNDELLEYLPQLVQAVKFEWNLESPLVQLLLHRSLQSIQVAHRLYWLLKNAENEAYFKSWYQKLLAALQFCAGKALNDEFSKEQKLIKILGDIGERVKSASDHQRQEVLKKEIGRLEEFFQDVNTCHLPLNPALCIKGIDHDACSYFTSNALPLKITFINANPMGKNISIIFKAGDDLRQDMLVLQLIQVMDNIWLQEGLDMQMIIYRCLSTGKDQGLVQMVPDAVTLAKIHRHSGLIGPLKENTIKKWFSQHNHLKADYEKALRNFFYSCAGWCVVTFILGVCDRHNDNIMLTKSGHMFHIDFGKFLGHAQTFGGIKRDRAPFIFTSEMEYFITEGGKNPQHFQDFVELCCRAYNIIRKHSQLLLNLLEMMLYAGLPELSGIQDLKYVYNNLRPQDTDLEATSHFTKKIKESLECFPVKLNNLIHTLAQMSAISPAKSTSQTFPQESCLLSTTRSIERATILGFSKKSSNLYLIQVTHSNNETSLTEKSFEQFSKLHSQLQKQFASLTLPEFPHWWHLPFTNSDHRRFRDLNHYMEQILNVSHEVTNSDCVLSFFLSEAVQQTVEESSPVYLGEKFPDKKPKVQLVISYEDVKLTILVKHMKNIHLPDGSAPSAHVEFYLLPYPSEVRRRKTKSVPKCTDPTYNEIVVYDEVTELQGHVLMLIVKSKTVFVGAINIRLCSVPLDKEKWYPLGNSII

As for `CCc1ccc2c(c1)C1(NN=C(c3cccc4ccccc34)S1)C(=O)N2` (stereo not shown) [OGM1, 5-ethyl-5′-naphthalen-1-ylspiro[1H-indole-3,2′-3H-1,3,4-thiadiazole]-2-one], the remaining binding at 10 µM on ABL1-phosphorylated came to 93%; on CLK3, 100%; at DRAK1, 100%; in assay [1], 99%; at GSK3A, 78%; at NDR2, 82%. The remaining binding at 10 µM was determined as 95% at NEK5; 100% on NEK7; 50% at PIK3C2G; 73% on PIM3; 100% at PIP5K2B; 100% at ROS1. The remaining binding at 10 µM amounted to 93% on S6K1 and 100% on WEE1. For the same compound, the Antagonism at CB2 (10 uM) is reported as −13.8; at CCR2B (10 uM) it was 0.7; on CRF2 (10 uM), −13.7; at FPR1 (10 uM), 14.3; at LPA3 (10 uM), 1.1; at M4 (10 uM) it was −2.8. The figures for the Antagonism on MC4 (10 uM) and at VPAC2 (10 uM) were −5.4 and 6.9, respectively. Moreover, the Agonism is −2.4 at CB2 (12.5 uM); 0.7 at CCR2B (12.5 uM); 0.6 on CRF2 (12.5 uM); −0.2 at FPR1 (12.5 uM); 0.3 on LPA3 (12.5 uM); −0.6 at M4 (12.5 uM). Moreover, the Agonism on MC4 (12.5 uM) is recorded as −0.3; on VPAC2 (12.5 uM), 10.7.
With `CCc1ccc2c(c1)C1(NN=C(c3ccccc3)S1)C(=O)N2` (stereo not shown) [OGM2], the Class result in the assay on HT-1080 is recorded as “Sensitive (Sensitive (LC50=2 to 10 μM))”. In addition, in the assay with HT-1080 (72 hours), the “% Survival 2 μM OGM” value was 64.2% and the “% Survival 10 μM OGM” value is recorded as 21.4%. Moreover, the CC50 with HT-1080 (Homo sapiens, HT-1080, 72 hours, read-out: LC50 (the source's name)) lay in the range of 2 to 10 µM.
